Laboratory results reported in patent US11878966B2, “Substituted 4-benzyl and 4-benzoyl piperidine derivates” (89BIO LTD, priority 2015, dated 2024).

Target: T1, recombinant human baculovirus-expressed GST-tagged FASN (Homo sapiens, UniProt P49327)
T1 construct: GST; host or cells: baculovirus expression system (insect cells implied)
Assay: FASN enzyme activity assay: fluorescence-based detection of CoA with CPM
Format: biochemical
Conditions: 5 nM FASN, 150 μM NADPH, 10 μM acetyl-CoA, 25 μM malonyl-CoA, 90 minutes incubation
Method in brief: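 IC50 values were fitted (variable-slope sigmoid) to percent inhibition from CPM fluorescence (390/530 nm) reporting free CoA after a 30 min labelling step. The reaction ran 90 min after malonyl-CoA (25 μM) addition, with 10 μM acetyl-CoA, 150 μM NADPH, 5 nM recombinant GST-FASN, 50 mM HEPES pH 7.5 and 0.5% DMSO.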

T1 sequence (P49327 whole entry): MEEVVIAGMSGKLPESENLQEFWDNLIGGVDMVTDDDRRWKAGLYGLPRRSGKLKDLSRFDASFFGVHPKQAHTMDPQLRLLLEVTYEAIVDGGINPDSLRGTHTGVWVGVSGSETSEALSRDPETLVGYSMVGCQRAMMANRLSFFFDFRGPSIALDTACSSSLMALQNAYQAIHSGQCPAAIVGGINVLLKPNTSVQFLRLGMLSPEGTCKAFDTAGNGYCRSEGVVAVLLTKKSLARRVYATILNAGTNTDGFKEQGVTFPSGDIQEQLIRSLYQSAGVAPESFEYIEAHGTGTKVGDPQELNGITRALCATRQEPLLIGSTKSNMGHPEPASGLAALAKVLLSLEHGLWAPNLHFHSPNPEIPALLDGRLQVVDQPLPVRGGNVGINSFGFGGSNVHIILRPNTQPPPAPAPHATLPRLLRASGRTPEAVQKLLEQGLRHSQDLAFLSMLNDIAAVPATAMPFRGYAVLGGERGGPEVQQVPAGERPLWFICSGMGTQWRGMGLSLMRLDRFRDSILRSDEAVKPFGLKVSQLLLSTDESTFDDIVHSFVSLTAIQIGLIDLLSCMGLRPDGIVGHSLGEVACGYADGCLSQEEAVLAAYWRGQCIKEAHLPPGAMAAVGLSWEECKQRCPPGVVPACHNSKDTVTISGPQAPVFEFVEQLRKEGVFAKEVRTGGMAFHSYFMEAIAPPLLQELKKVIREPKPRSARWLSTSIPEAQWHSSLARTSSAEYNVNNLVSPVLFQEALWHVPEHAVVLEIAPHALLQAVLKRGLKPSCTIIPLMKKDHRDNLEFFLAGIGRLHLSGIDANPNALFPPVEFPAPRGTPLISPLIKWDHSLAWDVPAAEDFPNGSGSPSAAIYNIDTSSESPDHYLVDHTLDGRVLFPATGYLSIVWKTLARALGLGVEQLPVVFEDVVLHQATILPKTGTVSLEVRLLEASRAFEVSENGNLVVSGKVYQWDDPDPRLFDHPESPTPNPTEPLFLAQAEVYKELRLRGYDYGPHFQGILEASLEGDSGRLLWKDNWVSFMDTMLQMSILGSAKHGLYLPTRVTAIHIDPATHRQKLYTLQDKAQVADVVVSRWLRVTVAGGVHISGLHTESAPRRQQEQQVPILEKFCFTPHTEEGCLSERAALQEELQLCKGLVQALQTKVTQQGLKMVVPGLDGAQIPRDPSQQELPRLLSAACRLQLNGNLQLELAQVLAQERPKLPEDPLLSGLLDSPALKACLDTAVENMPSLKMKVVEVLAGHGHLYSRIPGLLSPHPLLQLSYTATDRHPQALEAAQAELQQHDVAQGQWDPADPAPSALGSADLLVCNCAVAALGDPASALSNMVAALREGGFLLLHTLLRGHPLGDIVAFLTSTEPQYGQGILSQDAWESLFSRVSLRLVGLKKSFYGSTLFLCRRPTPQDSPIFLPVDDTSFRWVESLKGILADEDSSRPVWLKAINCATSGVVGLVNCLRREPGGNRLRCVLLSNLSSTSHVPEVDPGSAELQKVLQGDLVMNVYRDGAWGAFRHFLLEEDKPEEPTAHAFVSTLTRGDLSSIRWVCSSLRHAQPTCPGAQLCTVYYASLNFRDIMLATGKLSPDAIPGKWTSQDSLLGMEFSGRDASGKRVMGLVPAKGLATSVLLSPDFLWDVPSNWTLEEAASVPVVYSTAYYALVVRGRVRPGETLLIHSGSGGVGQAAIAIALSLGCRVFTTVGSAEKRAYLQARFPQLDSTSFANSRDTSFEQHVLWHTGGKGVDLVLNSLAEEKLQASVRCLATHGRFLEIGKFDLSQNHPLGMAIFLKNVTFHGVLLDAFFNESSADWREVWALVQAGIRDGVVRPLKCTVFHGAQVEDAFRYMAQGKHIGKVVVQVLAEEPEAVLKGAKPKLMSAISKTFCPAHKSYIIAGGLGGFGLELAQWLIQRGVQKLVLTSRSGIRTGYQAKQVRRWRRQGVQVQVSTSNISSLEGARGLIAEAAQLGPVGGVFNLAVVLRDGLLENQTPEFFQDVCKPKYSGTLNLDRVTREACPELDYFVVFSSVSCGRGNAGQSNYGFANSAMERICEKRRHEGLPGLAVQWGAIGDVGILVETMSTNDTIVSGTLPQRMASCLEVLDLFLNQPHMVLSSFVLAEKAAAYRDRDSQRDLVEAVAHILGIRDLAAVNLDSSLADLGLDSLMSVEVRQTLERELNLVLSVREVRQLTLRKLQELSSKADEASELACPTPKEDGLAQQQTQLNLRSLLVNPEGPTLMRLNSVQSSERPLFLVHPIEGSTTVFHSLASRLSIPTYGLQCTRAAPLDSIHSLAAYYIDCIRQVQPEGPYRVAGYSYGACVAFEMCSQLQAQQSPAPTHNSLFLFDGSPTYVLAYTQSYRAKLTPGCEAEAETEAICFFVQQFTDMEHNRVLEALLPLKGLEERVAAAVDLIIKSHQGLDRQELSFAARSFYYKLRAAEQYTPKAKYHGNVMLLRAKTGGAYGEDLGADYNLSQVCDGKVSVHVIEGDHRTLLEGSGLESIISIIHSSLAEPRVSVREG

Row | IC50 [nM] | Structure (SMILES)
1 | 1 to 99 | Cc1c(-c2ccc(CC3CCN(C(=O)C4CC4)CC3)cc2)ccc2cccnc12 [Example 24, Cyclopropyl-{4-[4-(8-methylquinolin-7-yl)-benzyl]-piperidin-1-yl}-methanone]
2 | 1 to 99 | COCCOC(c1ccc(-c2ccc3cccnc3c2C)cc1)C1CCN(C(=O)[C@H]2CCCO2)CC1 (stereo partly drawn) [Example 80, (4-{(2-Methoxyethoxy)-[4-(8-methyl-quinolin-7-yl)-phenyl]-methyl}-piperidin-1-yl)-(R)-tetrahydrofuran-2-yl-methanone]
3 | 100 to 999 | CCOC(C)(c1ccc(-c2ccc3cccnc3c2)cc1)C1CCN(C(=O)CC)CC1 (centres unmarked) [Example 214, 1-{4-[1-Ethoxy-1-(4-quinolin-7-yl-phenyl)-ethyl]-piperidin-1-yl}-propan-1-one]
4 | 1000 to 10000 | CC(C)C(=O)N1CCC(C2(c3ccc(-c4ccc5cccnc5c4)cc3)OCCO2)CC1 [Example 111, 2-Methyl-1-{4-[2-(4-quinolin-7-yl-phenyl)-1,3-dioxolan-2-yl]-piperidin-1-yl}-propan-1-one]
5 | 1 to 99 | CCNC(=O)N1CCC(Cc2ccc(-c3ccc4cccnc4c3OC)cc2)CC1 [Example 230, N-ethyl-4-[[4-(8-methoxy-7-quinolyl)phenyl]methyl]piperidine-1-carboxamide]
6 | 1000 to 10000 | Cc1c(-c2ccc(CC3CCN(C(=O)C4CC(F)(F)C4)CC3)cc2)cnc2ccccc12 [Example 14, (3,3-Difluorocyclobutyl)-{4-[4-(4-methylquinolin-3-yl)-benzyl]-piperidin-1-yl}-methanone]
7 | 100 to 999 | CCC(=O)N1CCC(C(=O)c2c(F)cc(-c3ccc4cnccc4c3)cc2F)CC1 [Example 138, 1-[4-(2,6-Difluoro-4-isoquinolin-6-yl-benzoyl)-piperidin-1-yl]-propan-1-one]
8 | 1 to 99 | CCC(=O)N1CCC(C(C)c2ccc(-c3cnc4ccccc4c3C)cc2)CC1 (centres unmarked) [Example 65, 1-(4-{1-[4-(4-Methylquinolin-3-yl)-phenyl]-ethyl}-piperidin-1-yl)-propan-1-one]
9 | 1 to 99 | CCC(=O)N1CCC(C(CC)c2ccc(-c3cnc4ccccc4c3)cc2)CC1 (centres unmarked) [Example 47, 1-{4-[1-(4-Quinolin-3-yl-phenyl)-propyl]-piperidin-1-yl}-propan-1-one]
10 | 100 to 999 | CCC(=O)N1CCC(C(c2ccc(-c3cnc4ccccc4c3)cc2)C(C)C)CC1 (centres unmarked) [Example 61, 1-{4-[2-Methyl-1-(4-quinolin-3-yl-phenyl)-propyl]-piperidin-1-yl}-propan-1-one]
11 | 1 to 99 | O=C([C@H]1CCCO1)N1CCC(F)(Cc2ccc(-c3cnc4ccccc4c3Cl)cc2)CC1 [Example 201, (R)-(4-(4-(4-chloroquinolin-3-yl)benzyl)-4-fluoropiperidin-1-yl)(tetrahydrofuran-2-yl)methanone]
12 | 1000 to 10000 | CCC(=O)N1CCC(C(N)c2ccc(-c3cnc4ccccc4c3)cc2)CC1 (centres unmarked) [Example 43, 1-{4-[amino-(4-quinolin-3-yl-phenyl)-methyl]-piperidin-1-yl}-propan-1-one]
13 | 1 to 99 | CCC(=O)N1CCC(F)(Cc2ccc(-c3cnc4ccccc4c3Cl)cc2)CC1 [Example 193, 1-(4-(4-(4-chloroquinolin-3-yl)benzyl)-4-fluoropiperidin-1-yl)propan-1-one]
14 | 1 to 99 | Cc1c(-c2ccc(CC3=CCN(C(=O)[C@H]4CCCO4)CC3)cc2)cnc2ccccc12 [Example 182, (R)-(4-(4-(4-methylquinolin-3-yl)benzyl)-5,6-dihydropyridin-1(2H)-yl)(tetrahydrofuran-2-yl)methanone]
15 | 100 to 999 | Cc1nccc2cc(-c3ccc(C(OCCN4CCCC4)C4CCN(C(=O)[C@H]5CCCO5)CC4)cc3)ccc12 (stereo partly drawn) [Example 90, {4-[[4-(1-Methylisoquinolin-6-yl)phenyl]-(2-pyrrolidin-1-yl-ethoxy)-methyl]-piperidin-1-yl}-(R)-tetrahydrofuran-2-yl-methanone]
16 | 100 to 999 | CCC(=O)N1CCC(C)(Cc2ccc(-c3cnc4ccccc4c3)cc2)CC1 [Example 59, 1-[4-Methyl-4-(4-quinolin-3-yl-benzyl)-piperidin-1-yl]-propan-1-one]
17 | 100 to 999 | CCC(=O)N1CCC(C(c2ccc(-c3cnc4ccccc4c3)cc2)C2CC2)CC1 (centres unmarked) [Example 48, 1-{4-[Cyclopropyl-(4-quinolin-3-yl-phenyl)-methyl]-piperidin-1-yl}-propan-1-one]
18 | 1000 to 10000 | CC(C)C(=O)N1CCC(C(O)c2ccc(-c3ccc4ncccc4c3)cc2)CC1 (centres unmarked) [Example 110, 1-{4-[Hydroxy-(4-quinolin-6-yl-phenyl)-methyl]-piperidin-1-yl}-2-methyl-propan-1-one]
19 | 1 to 99 | CCC(=O)N1CCC(C(C)c2ccc(-c3cnc4ccccc4c3)cc2)CC1 (single isomer, unassigned) [Example 68, 1-{4-[1-(4-Quinolin-3-yl-phenyl)-ethyl]-piperidin-1-yl}-propan-1-one]
20 | 1 to 99 | CCC(=O)N1CCC(F)(Cc2ccc(-c3cnc4ccccc4c3C)cc2)CC1 [Example 195, 1-(4-Fluoro-4-(4-(4-methylquinolin-3-yl)benzyl)piperidin-1-yl)propan-1-one]
21 | 100 to 999 | Cc1nccc2cc(-c3ccc(C(OCCCN4CCOCC4)C4CCN(C(=O)[C@H]5CCCO5)CC4)cc3)ccc12 (stereo partly drawn) [Example 86, {4-[[4-(1-Methylisoquinolin-6-yl)-phenyl]-(3-morpholin-4-yl-propoxy)-methyl]-piperidin-1-yl}-(R)-tetrahydrofuran-2-yl-methanone]
22 | 1 to 99 | CCC(=O)N1CCC(C#N)(Cc2ccc(-c3ccc4cccnc4c3OC)cc2)CC1 [Example 92, 4-[4-(8-methoxyquinolin-7-yl)-benzyl]-1-propionylpiperidine-4-carbonitrile]
23 | 1000 to 10000 | O=C(C1CC1)N1CCC(Cc2ccc(-c3cc4ccccc4cn3)cc2)CC1 [Example 27, Cyclopropyl-[4-(4-isoquinolin-3-yl-benzyl)-piperidin-1-yl]-methanone]
24 | 1 to 99 | CCC(=O)N1CC[C@@H](Cc2ccc(-c3cnc4ccccc4c3)cc2)[C@@H](F)C1 (relative stereo) [Example 221, 1-[cis-3-Fluoro-4-(4-quinolin-3-yl-benzyl)-piperidin-1-yl]-propan-1-one]
25 | 1000 to 10000 | CCC(=O)N1CCC(C2(c3ccc(-c4ccc5ncccc5c4)cc3)OCCO2)CC1 [Example 104, 1-{4-[2-(4-Quinolin-6-yl-phenyl)-1,3-dioxolan-2-yl]-piperidin-1-yl}-propan-1-one]
26 | 100 to 999 | CCC(=O)N1CCC(C)(C(=O)c2ccc(-c3cnc4ccccc4c3)cc2)CC1 [Example 56, 1-[4-Methyl-4-(4-quinolin-3-yl-benzoyl)-piperidin-1-yl]-propan-1-one]
27 | 1 to 99 | O=C(C1CC1)N1CCC(Cc2ccc(-c3cnc4ccccc4c3)cc2)CC1 [Example 3, Cyclopropyl-[4-(4-quinolin-3-yl-benzyl)-piperidin-1-yl]-methanone]
28 | 1000 to 10000 | CCC(OC)(c1ccc(-c2ccc3cccnc3c2)cc1)C1CCN(C(=O)C2CC2)CC1 (centres unmarked) [Example 217, Cyclopropyl-{4-[1-methoxy-1-(4-quinolin-7-yl-phenyl)-propyl]-piperidin-1-yl}-methanone]
29 | 1 to 99 | O=C(C1CC1)N1CCC(F)(Cc2ccc(-c3cncc4ccccc34)cc2)CC1 [Example 177, Cyclopropyl(4-fluoro-4-(4-(isoquinolin-4-yl)benzyl)piperidin-1-yl)methanone]
